Values of other authors in US20240245639A1, “Dermal Application of Retinoic Acid Receptor Agonists for Amelioration of Hypertrophic Scar” (Northwestern University, priority 2023, published 2024).

Target: T1, RAR-β (Homo sapiens, UniProt P10826)
T1 sequence (P10826 1-455): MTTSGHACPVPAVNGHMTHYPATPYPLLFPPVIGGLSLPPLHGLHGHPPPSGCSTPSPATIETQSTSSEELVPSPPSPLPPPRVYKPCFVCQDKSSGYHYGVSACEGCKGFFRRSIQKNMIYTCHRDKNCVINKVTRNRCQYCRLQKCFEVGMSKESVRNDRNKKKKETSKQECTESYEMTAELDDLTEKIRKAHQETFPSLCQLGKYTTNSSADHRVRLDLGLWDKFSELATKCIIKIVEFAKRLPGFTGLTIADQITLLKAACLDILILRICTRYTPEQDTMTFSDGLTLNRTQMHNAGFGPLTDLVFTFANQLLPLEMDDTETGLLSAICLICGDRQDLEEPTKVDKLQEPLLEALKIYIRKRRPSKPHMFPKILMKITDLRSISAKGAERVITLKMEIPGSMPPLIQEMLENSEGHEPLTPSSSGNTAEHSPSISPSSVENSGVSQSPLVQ
Conditions: cited from earlier work

Compound: CC(C)(C)c1cc(C(=O)/C=C/c2ccc(C(=O)O)cc2)cc(C(C)(C)C)c1 [Ch55]
- affinity for RAR-β: high affinity
